We go through 10 molecules from the supplement of paper PMC10627819.

Experiment in all cases: Bliss interaction score (quartile over a dose matrix) (fitness difference); higher = more antagonism (negative = synergy)
One test relates to S. aureus DSM 20231. In a few lines: (§1)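 Each OD595 reading at entry into stationary phase was scaled to the robust mean of the untreated wells on its plate, with a ceiling of 1. These ratios define fitness, and single-drug fitness was inferred from combinations. The Bliss score compares observed fitness with the product-based expectation and is reported as quartiles across all replicate types, technical, biological and donor/recipient.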

The test system of the next test is S. pneumoniae D39V. The method in brief: as §1
In a further test the test system is B. subtilis 168. The method in brief: as §1
The next test deals with S. aureus Newman. In a few lines: as §1
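Further: first quartile when negative (synergy) and third quartile when positive (antagonism).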

On to `CC[C@H]1OC(=O)[C@H](C)[C@@H](O[C@H]2C[C@@](C)(OC)[C@@H](O)[C@H](C)O2)[C@H](C)[C@@H](O[C@@H]2O[C@H](C)C[C@H](N(C)C)[C@H]2O)[C@](C)(O)C[C@@H](C)C(=O)[C@H](C)[C@@H](O)[C@]1(C)O` [Erythromycin] + CO[C@@]12[C@H](COC(N)=O)C3=C(C(=O)C(C)=C(N)C3=O)N1C[C@@H]1N[C@@H]12 [MitomycinC], for which the Bliss interaction score was -0.048 in the test on S. aureus DSM 20231, -0.0897 in the test on S. pneumoniae D39V, 0.0799 with B. subtilis 168 and 0.0538 with S. aureus Newman.

Turning to `CC[C@H]1OC(=O)[C@H](C)[C@@H](O[C@H]2C[C@@](C)(OC)[C@@H](O)[C@H](C)O2)[C@H](C)[C@@H](O[C@@H]2O[C@H](C)C[C@H](N(C)C)[C@H]2O)[C@](C)(O)C[C@@H](C)C(=O)[C@H](C)[C@@H](O)[C@]1(C)O` [Erythromycin] + CO[C@H]1/C=C/O[C@@]2(C)Oc3c(C)c(O)c4c(O)c(c(/C=N/N5CCN(C)CC5)c(O)c4c3C2=O)NC(=O)/C(C)=C\C=C\[C@H](C)[C@H](O)[C@@H](C)[C@@H](O)[C@@H](C)[C@H](OC(C)=O)[C@@H]1C [Rifampicin], the Bliss interaction score turned out to be 0.0363 with S. aureus DSM 20231, 0.0763 in the test with S. pneumoniae D39V, 0.116 in the test with B. subtilis 168 and 0.0582 in the test with S. aureus Newman.

Turning to `CC[C@H]1OC(=O)[C@H](C)[C@@H](O[C@H]2C[C@@](C)(OC)[C@@H](O)[C@H](C)O2)[C@H](C)[C@@H](O[C@@H]2O[C@H](C)C[C@H](N(C)C)[C@H]2O)[C@](C)(O)C[C@@H](C)C(=O)[C@H](C)[C@@H](O)[C@]1(C)O` [Erythromycin] + COc1c(N2C[C@@H]3CCCN[C@@H]3C2)c(F)cc2c(=O)c(C(=O)O)cn(C3CC3)c12 [Moxifloxacin], the Bliss interaction score in the test on S. aureus DSM 20231 came out at 0.0532; in the test on S. pneumoniae D39V, 0.101; in the test with B. subtilis 168, 0.0269; with S. aureus Newman it was 0.0486.

For `CC[C@H]1OC(=O)[C@H](C)[C@@H](O[C@H]2C[C@@](C)(OC)[C@@H](O)[C@H](C)O2)[C@H](C)[C@@H](O[C@@H]2O[C@H](C)C[C@H](N(C)C)[C@H]2O)[C@](C)(O)C[C@@H](C)C(=O)[C@H](C)[C@@H](O)[C@]1(C)O` [Erythromycin] + COc1cc(Cc2cnc(N)nc2N)cc(OC)c1OC [Trimethoprim], the Bliss interaction score with S. aureus DSM 20231 was 0.0179; with S. pneumoniae D39V it was -0.0464; in the test on B. subtilis 168, -0.155; in the test with S. aureus Newman, 0.0715.

Turning to `CC[C@H]1OC(=O)[C@H](C)[C@@H](O[C@H]2C[C@@](C)(OC)[C@@H](O)[C@H](C)O2)[C@H](C)[C@@H](O[C@@H]2O[C@H](C)C[C@H](N(C)C)[C@H]2O)[C@](C)(O)C[C@@H](C)C(=O)[C@H](C)[C@@H](O)[C@]1(C)O` [Erythromycin] + COc1ccc(C[C@H](N)C(=O)N[C@H]2[C@@H](O)[C@H](n3cnc4c(N(C)C)ncnc43)O[C@@H]2CO)cc1 [Puromycin], the Bliss interaction score in the test with S. aureus DSM 20231 was -0.0389; in the test with S. pneumoniae D39V, -0.0449; with B. subtilis 168, -0.0531; in the test on S. aureus Newman, -0.0378.

In the case of `CC[C@H]1OC(=O)[C@H](C)[C@@H](O[C@H]2C[C@@](C)(OC)[C@@H](O)[C@H](C)O2)[C@H](C)[C@@H](O[C@@H]2O[C@H](C)C[C@H](N(C)C)[C@H]2O)[C@](C)(O)C[C@@H](C)C(=O)[C@H](C)[C@@H](O)[C@]1(C)O` [Erythromycin] + C[C@@H]1O[C@@H]1P(=O)(O)O [Fosfomycin], the Bliss interaction score in the test on S. aureus DSM 20231 is -0.0365; in the test with S. pneumoniae D39V it was 0.0627; in the test with B. subtilis 168, 0.116; in the test on S. aureus Newman, -0.073.

On to `CC[C@H]1OC(=O)[C@H](C)[C@@H](O[C@H]2C[C@@](C)(OC)[C@@H](O)[C@H](C)O2)[C@H](C)[C@@H](O[C@@H]2O[C@H](C)C[C@H](N(C)C)[C@H]2O)[C@](C)(O)C[C@@H](C)C(=O)[C@H](C)[C@@H](O)[C@]1(C)O` [Erythromycin] + C[C@@H](O)[C@H]1C(=O)N2C(C(=O)O)=C(SCCNC=N)C[C@H]12 [Imipenem], for which the Bliss interaction score in the test with S. aureus DSM 20231 is 0.0185; with S. pneumoniae D39V, -0.0344; with B. subtilis 168, 0.078; in the test on S. aureus Newman, 0.0221.

For the molecule `CC[C@H]1OC(=O)[C@H](C)[C@@H](O[C@H]2C[C@@](C)(OC)[C@@H](O)[C@H](C)O2)[C@H](C)[C@@H](O[C@@H]2O[C@H](C)C[C@H](N(C)C)[C@H]2O)[C@](C)(O)C[C@@H](C)C(=O)[C@H](C)[C@@H](O)[C@]1(C)O` [Erythromycin] + C[C@H]1COc2c(N3CCN(C)CC3)c(F)cc3c(=O)c(C(=O)O)cn1c23 [Levofloxacin], the Bliss interaction score amounted to 0.0327 in the test with S. aureus DSM 20231, 0.0979 with S. pneumoniae D39V, 0.041 with B. subtilis 168 and 0.0478 in the test on S. aureus Newman.

Consider `CC[C@H]1OC(=O)[C@H](C)[C@@H](O[C@H]2C[C@@](C)(OC)[C@@H](O)[C@H](C)O2)[C@H](C)[C@@H](O[C@@H]2O[C@H](C)C[C@H](N(C)C)[C@H]2O)[C@](C)(O)C[C@@H](C)C(=O)[C@H](C)[C@@H](O)[C@]1(C)O` [Erythromycin] + C[n+]1ccc(-c2cc[n+](C)cc2)cc1 [Paraquat], for which the Bliss interaction score in the test on S. aureus DSM 20231 is 0.0299; in the test with S. pneumoniae D39V, 0.0496; in the test with B. subtilis 168, -0.0399; with S. aureus Newman, 0.0479.

For `CC[C@H]1OC(=O)[C@H](C)[C@@H](O[C@H]2C[C@@](C)(OC)[C@@H](O)[C@H](C)O2)[C@H](C)[C@@H](O[C@@H]2O[C@H](C)C[C@H](N(C)C)[C@H]2O)[C@](C)(O)C[C@@H](C)C(=O)[C@H](C)[C@@H](O)[C@]1(C)O` [Erythromycin] + Cc1cc(NS(=O)(=O)c2ccc(N)cc2)no1 [Sulfamethoxazol], the Bliss interaction score is -0.0354 with S. aureus DSM 20231, -0.0479 in the test on S. pneumoniae D39V, -0.0511 with B. subtilis 168 and -0.0442 in the test on S. aureus Newman.
